The values below come from patent US20250345391A1, “COMPOSITIONS AND METHODS FOR THE TREATMENT OF SEPSIS” (Children's Hospital Medical Center, priority 2022, published 2025).

Assay type in all cases: in vivo, Male C57BL/6 mice
For experiment [1], the system named is AMPK. Description: Western blot of AMPKα and pAMPKα in thoracic aorta cytosol after CLP. Conditions: 6 h after CLP; colivelin i.p. at 1 h after CLP; vs vehicle; dose-independent. From the text:
The investigation conformed to the National Institutes of Health Guide for the Care and Use of Laboratory Animals (Eighth Edition, 2011) and was approved by the Institutional Animal Care and Use Committee of the Cincinnati Children's Hospital Medical Center. Male C57BL/6 mice were obtained from Charles River Laboratories International, Inc. (Wilmington, MA). Mice were used at 3-5 months of age to mimic the equivalent for human ranges from 20-25 years (29). Male mice only were chosen for the experimentation to avoid interference from female hormonal fluctuations in sepsis responses during the estrous cycle. Mice were housed in pathogen-free conditions under a 10-h light/14-h dark cycle with free access to food and water. […]
(§1) Subcellular fractionation was performed using a centrifugation model. […] The Bradford protein assay was then used for quantitative determination of total proteins.
(§2) Cytosol content of total AMPKα1/α2 and its phosphorylated form pAMPKα1/α2 (Santa Cruz Biotechnology, Dallas, TX, USA), cytosol and nuclear content of STAT3 and its phosphorylated forms pSTAT3(Tyr705) and pSTAT3(Ser727) (Cell Signaling Technology, Danvers, MA, USA) were determined by immunoblot analyses; β-actin was concomitantly probed with mouse anti-β-actin (Santa Cruz Biotechnology) as a loading control for both cytosol and nuclear proteins. […] The immunoreaction was detected by near-infrared fluorescence. […]
In general terms: Immunoblotting shows a protein as a band on a membrane.

For experiment [2], the system named is syndecan-1. Description: Plasma syndecan-1 (glycocalyx damage) after CLP sepsis, ELISA. Conditions: 6 h after CLP; colivelin 100 or 200 μg/kg i.p. at 1 h after CLP; vs vehicle; dose-independent. An excerpt: The investigation conformed to the National Institutes of Health Guide for the Care and Use of Laboratory Animals (Eighth Edition, 2011) and was approved by the Institutional Animal Care and Use Committee of the Cincinnati Children's Hospital Medical Center. Male C57BL/6 mice were obtained from Charles River Laboratories International, Inc. (Wilmington, MA). Mice were used at 3-5 months of age to mimic the equivalent for human ranges from 20-25 years (29). Male mice only were chosen for the experimentation to avoid interference from female hormonal fluctuations in sepsis responses during the estrous cycle. Mice were housed in pathogen-free conditions under a 10-h light/14-h dark cycle with free access to food and water. […] Plasma levels of tumor necrosis factor-α (TNFα), interleukin (IL)-1β, IL-6, IL-10, keratinocytes-derived chemokine (KC), and macrophage inflammatory proteins (MIP-1α) were used as indices of the systemic inflammatory response and were evaluated by a commercially available multiplex array system (Milliplex, Millipore Corporation, Billerica, MA). Plasma levels of endoglin, intercellular adhesion molecule-1 (ICAM-1), P-selectin, proprotein convertase subtilisin/kexin type 9 (PCSK9), and angiopoietin-2 (Ang 2) were used as indices of endothelial injury and were evaluated by a commercially available multiplex array system (R&D Systems, Minneapolis, MN). […]
On the technique in general: In an ELISA, binding on a coated surface is turned into a signal by an enzyme label.

Experiment [3] deals with STAT3. The experiment is described as follows: Western blot of STAT3 and phosphorylated forms in lung after CLP. Conditions: 6 h after CLP; colivelin 100 μg/kg i.p. at 1 h after CLP; vs vehicle.
Excerpt: The investigation conformed to the National Institutes of Health Guide for the Care and Use of Laboratory Animals (Eighth Edition, 2011) and was approved by the Institutional Animal Care and Use Committee of the Cincinnati Children's Hospital Medical Center. Male C57BL/6 mice were obtained from Charles River Laboratories International, Inc. (Wilmington, MA). Mice were used at 3-5 months of age to mimic the equivalent for human ranges from 20-25 years (29). Male mice only were chosen for the experimentation to avoid interference from female hormonal fluctuations in sepsis responses during the estrous cycle. Mice were housed in pathogen-free conditions under a 10-h light/14-h dark cycle with free access to food and water. Mice were anesthetized with 2.0% isoflurane in 50% oxygen and polymicrobial sepsis was induced by cecal ligation and puncture (CLP) (30). After a midline laparotomy, the cecum was exteriorized, ligated and punctured twice with a 23-G needle. The cecum was then returned into the peritoneal cavity and the abdominal incision was closed. After the procedure, mice were randomly assigned to three treatment groups: a vehicle-treated group received distilled water (200 μl/mouse) intraperitoneally (i.p.); a 100 μg colivelin-treated group received the colivelin at 100 μg/kg i.p., and a 200 μg colivelin-treated group received the colivelin at 200 μg/kg i.p. at 1 h after CLP. The intraperitoneal injection was chosen to allow for a rapid uptake and bioavailability of the peptide. All groups of mice also received fluid resuscitation (35 ml/kg normal saline solution subcutaneously) immediately after, at 3 h and 12 h after the CLP procedure. To minimize pain at the surgical incision site, lidocaine hydrochloride (1%, 4 mg/kg total dose) was applied locally immediately after the procedure. […] Mice were then sacrificed at 0, 6 and 18 h after CLP. Blood, lungs, kidneys, liver, and thoracic aortas were collected for biochemical assays.
as §1, §2

For Colivelin (SALLRSIPAPAGASRLLLLTGEIDLP), in experiment [1], the “Ratio of the phosphorylated/total forms of AMPKα (p-AMPKα/AMPKα), cytosol of thoracic aortas” value was “significantly increased”. In experiment [2], the “Levels of plasma syndecan-1” value was “significantly decreased”. Also, in experiment [3], the “Cytosolic expression of pSTAT3(Ser727), lung” value is on record as “significantly reduced”; the “Cytosolic expression of pSTAT3(Tyr705), lung” value is listed as “significantly reduced”; the “Nuclear expression of pSTAT3(Ser727), lung” value is “lower than vehicle-treated mice, but not statistically significant”; the “Nuclear expression of pSTAT3(Tyr705), lung” value is “lower than vehicle-treated mice, but not statistically significant”.
